Source: ChEMBL document CHEMBL5331072, “Development of potent and selective FAAH inhibitors with improved drug-like properties as potential tools to treat neuroinflammatory conditions” (Eur J Med Chem, 2023)
≈ marks a conversion by molar mass, not a printed value. Calls of active or inactive are those of the source. The rule behind the calls is not given here.

Legend:
[1] = target: T1, Fatty-acid amide hydrolase 1 (Homo sapiens, UniProt O00519); experiment: Inhibition of human recombinant FAAH using AMC-AA as substrate preincubated for 30 mins followed by substrate addition and measured after 30 mins by multimode plate reader analysis
T1 sequence (O00519 whole entry): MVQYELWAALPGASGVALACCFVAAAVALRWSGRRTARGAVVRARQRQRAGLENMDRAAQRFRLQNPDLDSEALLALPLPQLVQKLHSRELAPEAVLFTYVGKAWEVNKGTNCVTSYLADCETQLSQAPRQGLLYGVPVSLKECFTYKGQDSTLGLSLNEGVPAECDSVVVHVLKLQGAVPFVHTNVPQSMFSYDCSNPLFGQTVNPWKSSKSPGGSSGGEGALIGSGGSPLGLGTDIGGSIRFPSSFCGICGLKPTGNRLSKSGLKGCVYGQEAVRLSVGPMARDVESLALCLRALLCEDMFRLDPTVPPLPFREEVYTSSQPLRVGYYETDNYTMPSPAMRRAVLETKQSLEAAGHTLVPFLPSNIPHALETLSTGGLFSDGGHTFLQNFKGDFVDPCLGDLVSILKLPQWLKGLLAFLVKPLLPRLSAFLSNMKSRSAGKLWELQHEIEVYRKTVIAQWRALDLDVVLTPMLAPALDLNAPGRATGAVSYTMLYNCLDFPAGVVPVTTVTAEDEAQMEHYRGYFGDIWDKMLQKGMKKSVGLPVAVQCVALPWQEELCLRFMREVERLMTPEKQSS

[2] = target: T2, Monoglyceride lipase (Homo sapiens, UniProt Q99685); experiment: Inhibition of human recombinant MAGL using 7-hydroxycoumarinyl arachidonate as substrate preincubated for 30 mins followed by substrate addition and measured after 30 mins by multimode plate reader analysis
T2 sequence (Q99685 whole entry): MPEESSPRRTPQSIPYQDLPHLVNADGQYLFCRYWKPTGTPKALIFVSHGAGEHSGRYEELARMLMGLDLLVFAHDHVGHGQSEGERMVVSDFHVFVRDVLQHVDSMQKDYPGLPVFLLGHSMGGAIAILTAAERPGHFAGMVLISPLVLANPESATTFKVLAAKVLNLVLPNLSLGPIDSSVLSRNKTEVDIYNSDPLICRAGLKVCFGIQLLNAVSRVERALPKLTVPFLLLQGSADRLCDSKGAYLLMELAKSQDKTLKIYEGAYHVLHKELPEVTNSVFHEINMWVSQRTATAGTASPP

[3] = Chemical stability of the compound at pH 3 measured for 24 hrs by HPLC analysis; format: physicochemical; conditions: buffer, read-out: Stability
[4] = Chemical stability of the compound at pH 7.4 measured for 24 hrs by HPLC analysis; format: physicochemical; conditions: buffer, read-out: Stability
[5] = Solubility of compound at pH 3 measured for 24 hrs; format: physicochemical; conditions: buffer
[6] = Solubility of compound at pH 7.4 measured for 24 hrs; format: physicochemical; conditions: buffer
[7] = Cytotoxicity against mouse NIH3T3 cells assessed as inhibition of cell growth measured for 24 hrs by neutral red uptake assay; format: toxicity, cell-based
[8] = tested on: 1321N1; experiment: Cytotoxicity against human 1321N1 cells assessed as inhibition of cell growth at 10 nM measured for 24 hrs by MTT assay; format: functional; parameters: scale not given: the % may be the effect or the level left
[9] = tested on: 1321N1; experiment: Cytotoxicity against human 1321N1 cells assessed as inhibition of cell growth at 100 nM measured for 24 hrs by MTT assay; format: functional; parameters: scale not given: the % may be the effect or the level left
[10] = tested on: 1321N1; experiment: Cytotoxicity against human 1321N1 cells assessed as inhibition of cell growth at 1 uM measured for 24 hrs by MTT assay; format: functional; parameters: scale not given: the % may be the effect or the level left
[11] = tested on: 1321N1; experiment: Cytotoxicity against human 1321N1 cells assessed as inhibition of cell growth at 10 uM measured for 24 hrs by MTT assay; format: functional; parameters: scale not given: the % may be the effect or the level left
[12] = tested on: 1321N1; experiment: Cytotoxicity against human 1321N1 cells assessed as inhibition of cell growth at 30 uM measured for 24 hrs by MTT assay; format: functional; parameters: scale not given: the % may be the effect or the level left
[13] = Cardiotoxicity in Langendorff-perfused Wistar rat heart assessed as effect on heart rate at 0.3 uM by ECG analysis (reference value: 263.5+/-8.2 bpm); format: toxicity, tissue-based
[14] = Cardiotoxicity in Langendorff-perfused Wistar rat heart assessed as effect on heart rate at 1 uM by ECG analysis (reference value: 263.5+/-8.2 bpm); format: toxicity, tissue-based
[15] = Cardiotoxicity in Langendorff-perfused Wistar rat heart assessed as effect on heart rate at 10 uM by ECG analysis (reference value: 263.5+/-8.2 bpm); format: toxicity, tissue-based
[16] = Cardiotoxicity in Langendorff-perfused Wistar rat heart assessed as effect on heart rate at 30 uM by ECG analysis (reference value: 263.5+/-8.2 bpm); format: toxicity, tissue-based
[17] = Cardiotoxicity in Langendorff-perfused Wistar rat heart assessed as effect on RR time at 0.3 uM by ECG analysis (reference value: 230+/-8.7 milliseconds); format: toxicity, tissue-based
[18] = Cardiotoxicity in Langendorff-perfused Wistar rat heart assessed as effect on RR time at 1 uM by ECG analysis (reference value: 230+/-8.7 milliseconds); format: toxicity, tissue-based
[19] = Cardiotoxicity in Langendorff-perfused Wistar rat heart assessed as effect on RR time at 10 uM by ECG analysis (reference value: 230+/-8.7 milliseconds); format: toxicity, tissue-based
[20] = Cardiotoxicity in Langendorff-perfused Wistar rat heart assessed as effect on RR time at 30 uM by ECG analysis (reference value: 230+/-8.7 milliseconds); format: toxicity, tissue-based
[21] = Cardiotoxicity in Langendorff-perfused Wistar rat heart assessed as effect on PQ interval time at 0.3 uM by ECG analysis (Rvb =40.8+/-2.3 milliseconds); format: toxicity, tissue-based
[22] = Cardiotoxicity in Langendorff-perfused Wistar rat heart assessed as effect on PQ interval time at 1 uM by ECG analysis (Rvb =40.8+/-2.3 milliseconds); format: toxicity, tissue-based
[23] = Cardiotoxicity in Langendorff-perfused Wistar rat heart assessed as effect on PQ interval time at 10 uM by ECG analysis (Rvb =40.8+/-2.3 milliseconds); format: toxicity, tissue-based
[24] = Cardiotoxicity in Langendorff-perfused Wistar rat heart assessed as effect on PQ interval time at 30 uM by ECG analysis (Rvb =40.8+/-2.3 milliseconds); format: toxicity, tissue-based
[25] = Cardiotoxicity in Langendorff-perfused Wistar rat heart assessed as effect on QRS interval time at 0.3 uM by ECG analysis (Rvb =13.6+/-0.7 milliseconds); format: toxicity, tissue-based
[26] = Cardiotoxicity in Langendorff-perfused Wistar rat heart assessed as effect on QRS interval time at 1 uM by ECG analysis (Rvb =13.6+/-0.7 milliseconds); format: toxicity, tissue-based
[27] = Cardiotoxicity in Langendorff-perfused Wistar rat heart assessed as effect on QRS interval time at 10 uM by ECG analysis (Rvb =13.6+/-0.7 milliseconds); format: toxicity, tissue-based
[28] = Cardiotoxicity in Langendorff-perfused Wistar rat heart assessed as effect on QRS interval time at 30 uM by ECG analysis (Rvb =13.6+/-0.7 milliseconds); format: toxicity, tissue-based
[29] = Cardiotoxicity in Langendorff-perfused Wistar rat heart assessed as effect on QTc interval time at 0.3 uM by ECG analysis (Rvb =72.1+/-1.4 milliseconds); format: toxicity, tissue-based
[30] = Cardiotoxicity in Langendorff-perfused Wistar rat heart assessed as effect on QTc interval time at 1 uM by ECG analysis (Rvb =72.1+/-1.4 milliseconds); format: toxicity, tissue-based
[31] = Cardiotoxicity in Langendorff-perfused Wistar rat heart assessed as effect on QTc interval time at 10 uM by ECG analysis (Rvb =72.1+/-1.4 milliseconds); format: toxicity, tissue-based
[32] = Cardiotoxicity in Langendorff-perfused Wistar rat heart assessed as effect on QTc interval time at 30 uM by ECG analysis (Rvb =72.1+/-1.4 milliseconds); format: toxicity, tissue-based
[33] = tested on: 1321N1; experiment: Antiinflammatory activity against human 1321N1 cells assessed as reduction in TBHP-induced ROS production at 100 nM incubated for 24 hrs by CellROX green reagent based flow cytometry assay; format: functional, cell-based
[34] = tested on: 1321N1; experiment: Antiinflammatory activity against human 1321N1 cells assessed as reduction in TBHP-induced ROS production at 1 uM incubated for 24 hrs by CellROX green reagent based flow cytometry assay; format: functional, cell-based
[35] = Neurotoxicity against Wistar rat Hippocampus assessed as cell survival at 0.3 to 100 nM measured for 96 hrs by densitometric analysis; format: toxicity, tissue-based; conditions: 0.1 µM, dose 0.3-100 nM
[36] = tested on: Hippocampus; experiment: Neuroprotective activity against Wistar rat Hippocampus assessed as reduction in LPS/IFN-gamma induced PI uptake in CA1 region at 3 to 1000 nM measured for 96 hrs; format: functional, tissue-based; conditions: dose 3-1000 nM
[37] = tested on: Hippocampus; experiment: Neuroprotective activity against Wistar rat Hippocampus assessed as reduction in LPS/IFN-gamma induced PI uptake in CA1 region at 30 to 100 nM measured for 96 hrs; format: functional, tissue-based; conditions: dose 30-100 nM

NC(=O)c1ccn(-c2cccc(OC(=O)N3CCN(CCCc4ccccc4)CC3)c2)c1
IC50 [1]: 0.0101 µM
IC50 [2]: > 10 µM
remaining at 24 h [3]: > 99%
remaining at 24 h [4]: > 99%
solubility at 24 h [5]: 228 µM (≈ 98.6 µg/mL)
solubility at 24 h [6]: 42 µM (≈ 18.2 µg/mL)
IC50 at 24 h [7]: 46 µM
Activity [8]: 100.5%
Activity [9]: 99.5%
Activity [10]: 100.3%
Activity [11]: 100%
Activity [12]: 101.5%
Activity [13]: 270 bpm
Activity [14]: 273 bpm
Activity [15]: 263.8 bpm
Activity [16]: 190.2 bpm
Time [17]: 223.8 ms
Time [18]: 220.2 ms
Time [19]: 229.8 ms
Time [20]: 286.4 ms
Time [21]: 39.2 ms
Time [22]: 40.6 ms
Time [23]: 41.2 ms
Time [24]: 54.8 ms
Time [25]: 13.8 ms
Time [26]: 13.8 ms
Time [27]: 14 ms
Time [28]: 14.6 ms
Time [29]: 70.6 ms
Time [30]: 70.6 ms
Time [31]: 71 ms
Time [32]: 73.5 ms
Activity [33]: Active
Activity [34]: Active
Activity [35]: Non-Toxic
Activity [36]: Active
Activity [37]: Active
